From the NIST ThermoML archive (doi:10.1016/j.jct.2016.06.032)
± gives the expanded uncertainty stated by the source.

Tests used:
[1] = Crystal; DTA
[2] = Molar enthalpy of transition or fusion; conditions: Crystal; DSC

With `N#Cc1ccccc1-c1ccc(CBr)cc1` [4'-(bromomethyl)-2-cyanobiphenyl] the Normal melting temperature [1] was 125.90 ± 1.1 °C and the “Molar enthalpy of transition or fusion” value [2] was 7 ± 0.454 kcal/mol.
